Experiments:
[1] = tested on: Puccinia recondita f. so. tritici; test: Puccinia recondita f. sp. tritici / wheat / leaf disc preventative (brown rust); format: in vivo; conditions: foliar, 200 ppm in the formulation, wheat leaf segments cv. Kanzler, 7-9 days after application, vs untreated control, read-out: disease control
Procedure: Puccinia recondita f. so. tritici/Wheat/Leaf Disc Preventative (Brown Rust)
Wheat leaf segments cv. Kanzler are placed on agar in multiwell plates (24-well format) and sprayed with the formulated test compound diluted in water. The leaf disks are inoculated with a spore suspension of the fungus 1 day after application. The inoculated leaf segments are incubated at 19° C. and 75% rh under a light regime of 12 h light/12 h darkness in a climate cabinet and the activity of a compound is assessed as percent disease control compared to untreated when an appropriate level of disease damage appears in untreated check leaf segments (7-9 days after application).

[2] = tested on: Phaeosphaeria nodorum (Setoria nodorum); test: Phaeosphaeria nodorum (Septoria nodorum) / wheat / leaf disc preventative (glume blotch); format: in vivo; conditions: Parastagonospora nodorum, foliar, 200 ppm in the formulation, wheat leaf segments cv. Kanzler, 5-7 days after application, vs untreated control, read-out: disease control
Procedure: Phaeosphaeria nodorum (Setoria nodorum)/Wheat/Leaf Disc Preventative (Glume Blotch) Wheat leaf segments cv. Kanzler are placed on agar in a multiwell plate (24-well format) and sprayed with the formulated test compound diluted in water. The leaf disks are inoculated with a spore suspension of the fungus 2 days after application. The inoculated test leaf disks are incubated at 20° C. and 75% rh under a light regime of 12 h light/12 h darkness in a climate cabinet and the activity of a compound is assessed as percent disease control compared to untreated when an appropriate level of disease damage appears in untreated check leaf disks (5-7 days after application).

[3] = tested on: Glomerella lagenarium (Colletotrichum lagenarium); test: Glomerella lagenarium (Colletotrichum lagenarium) / liquid culture (anthracnose); format: cell-based; conditions: Colletotrichum orbiculare; 200 ppm in the formulation; PDB broth, 24° C., photometric, 3 to 4 days after application; vs untreated control; read-out: disease control (inhibition of growth)
Procedure: (§1) Glomerella lagenarium (Colletotrichum lagenarium)/Liquid Culture (Anthracnose) Conidia of the fungus from cryogenic storage are directly mixed into nutrient broth (PDB potato dextrose broth). After placing a (DMSO) solution of test compound into a microtiter plate (96-well format), the nutrient broth containing the fungal spores is added. The test plates are incubated at 24° C. and the inhibition of growth is measured photometrically 3 to 4 days after application.

[4] = tested on: Mycosphaerella arachidis (Cercospora arachidicola); test: Mycosphaerella arachidis (Cercospora arachidicola) / liquid culture (early leaf spot); format: cell-based; conditions: 200 ppm in the formulation, PDB broth, 24° C., photometric, 4-5 days after application, vs untreated control, read-out: disease control (inhibition of growth)
Procedure: as §1, with “Mycosphaerella arachidis (Cercospora arachidicola)/Liquid” for “Glomerella lagenarium (Colletotrichum lagenarium)/Liquid”, “(Early Leaf Soot)” for “(Anthracnose)”, “determined” for “measured”, “4-5” for “3 to 4”

[5] = tested on: Magnaporthe grisea (Pyricularia oryzae); test: whole plant or invertebrate; format: in vivo; conditions: foliar, read-out: disease control
[6] = tested on: Mycosphaerella graminicola (Septoria tritici); test: Mycosphaerella graminicola (Septoria tritici) / liquid culture (Septoria blotch); format: cell-based; conditions: Zymoseptoria tritici; 200 ppm in the formulation; PDB broth, 24° C., photometric, 4 to 5 days after application; vs untreated control; read-out: disease control (inhibition of growth)
Procedure: (§2) Mycosphaerella graminicola (Septoria tritici)/Liquid Culture (Septoria Blotch) Conidia of the fungus from cryogenic storage are directly mixed into nutrient broth (PDB potato dextrose broth). After placing a (DMSO) solution of test compound into a microtiter plate (96-well format), the nutrient broth containing the fungal spores is added. The test plates are incubated at 24° C. and the inhibition of growth is determined photometrically 4 to 5 days after application.

[7] = tested on: Monographella nivalis (Microdochium nivale); test: Monographella nivalis (Microdochium nivale) / liquid culture (foot rot cereals); format: cell-based; conditions: 200 ppm in the formulation, PDB broth, 24° C., photometric, 4-5 days after application, vs untreated control, read-out: disease control (inhibition of growth)
Procedure: as §2, with “Monographella nivalis (Microdochium nivale)/Liquid” for “Mycosphaerella graminicola (Septoria tritici)/Liquid”, “(Foot Rot Cereals)” for “(Septoria Blotch)”, “4-5” for “4 to 5”

[8] = tested on: Botryotinia fuckeliana (Botrytis cinerea); test: Botryotinia fuckeliana (Botrytis cinerea) liquid culture (gray mould); format: cell-based; conditions: 200 ppm in the formulation, Vogels broth, 24° C., photometric, 3-4 days after application, vs untreated control, read-out: disease control (inhibition of growth)
Procedure: as §2, with “Botryotinia fuckeliana (Botrytis cinerea) Liquid” for “Mycosphaerella graminicola (Septoria tritici)/Liquid”, “(Gray Mould)” for “(Septoria Blotch)”, “(Vogels” for “(PDB potato dextrose”, “3-4” for “4 to 5”

[9] = tested on: Pythium ultimum; test: Pythium ultimum / liquid culture (seedling damping off); format: cell-based; conditions: Globisporangium ultimum; 200 ppm in the formulation; PDB broth, 24° C., photometric, 2-3 days after application; vs untreated control; read-out: disease control (inhibition of growth)
Procedure: Pythium ultimum/Liquid Culture (Seedling Damping Off) Mycelia fragments and oospores of a newly grown liquid culture of the fungus are directly mixed into nutrient broth (PDB potato dextrose broth). After placing a (DMSO) solution of test compound into a microtiter plate (96-well format), the nutrient broth containing the fungal mycelia/spore mixture is added. The test plates are incubated at 24° C. and the inhibition of growth is determined photometrically 2-3 days after application.

COc1ccnc(C(=O)N[C@@H](C)C(=O)OC(C)C(C)n2ccc3c(Br)ccc(F)c32)c1OC(C)=O (stereo partly drawn) [I.ab.041, [2-(4-bromo-7-fluoro-indol-1-yl)-1-methyl-propyl] (2S)-2-[(3-acetoxy-4-methoxy-pyridine-2-carbonyl)amino]propanoate]
≥ 80%: pest or weed control at 200 ppm [1] | pest or weed control at 200 ppm [2] | inhibition at 200 ppm [3] | inhibition at 200 ppm [4] | pest or weed control at 200 ppm [5] | inhibition at 200 ppm [6]

COc1ccnc(C(=O)N[C@@H](C)C(=O)OC(C)C(C)c2ncc(Cl)cc2Cl)c1O (stereo partly drawn) [I.an.001, [2-(3,5-dichloro-2-pyridyl)-1-methyl-propyl] (2S)-2-[(3-hydroxy-4-methoxy-pyridine-2-carbonyl)amino] propanoate]
≥ 80%: pest or weed control at 200 ppm [1] | pest or weed control at 200 ppm [2] | inhibition at 200 ppm [3] | inhibition at 200 ppm [4] | pest or weed control at 200 ppm [5] | inhibition at 200 ppm [6]

COc1ccnc(C(=O)N[C@@H](C)C(=O)OC(C)C(C)c2ncc(Cl)cc2Cl)c1OCOC(=O)C(C)C (stereo partly drawn) [I.an.081, [2-[[(1S)-2-[2-(3,5-dichloro-2-pyridyl)-1-methyl-propoxy]-1-methyl-2-oxo-ethyl]carbamoyl]-4-methoxy-3-pyridyl]oxymethyl 2-methylpropanoate]
≥ 80%: pest or weed control at 200 ppm [1] | pest or weed control at 200 ppm [2] | inhibition at 200 ppm [4] | pest or weed control at 200 ppm [5] | inhibition at 200 ppm [6] | inhibition at 200 ppm [7]

COc1ccnc(C(=O)N[C@@H](C)C(=O)OC(C)C(C)c2ccc(Cl)s2)c1O (stereo partly drawn) [I.ar.001, [2-(5-chloro-2-thienyl)-1-methyl-propyl] (2S)-2-[(3-hydroxy-4-methoxy-pyridine-2-carbonyl)amino]propanoate]
≥ 80%: pest or weed control at 200 ppm [1] | inhibition at 200 ppm [3] | inhibition at 200 ppm [4] | pest or weed control at 200 ppm [5] | inhibition at 200 ppm [6] | inhibition at 200 ppm [7]

COc1ccnc(C(=O)N[C@@H](C)C(=O)OC(C)C(C)c2sc3ccccc3c2C)c1O (stereo partly drawn) [I.as.001, [1-methyl-2-(3-methylbenzothiophen-2-yl)propyl] (2S)-2-[(3-hydroxy-4-methoxy-pyridine-2-carbonyl)amino]propanoate]
≥ 80%: inhibition at 200 ppm [8] | pest or weed control at 200 ppm [1] | pest or weed control at 200 ppm [2] | inhibition at 200 ppm [3] | inhibition at 200 ppm [4] | pest or weed control at 200 ppm [5] | inhibition at 200 ppm [6] | inhibition at 200 ppm [7]

COc1ccnc(C(=O)N[C@@H](C)C(=O)OC(C)C(C)n2ccc3cccc(Br)c32)c1O (stereo partly drawn) [I.ba.001, [2-(7-bromoindol-1-yl)-1-methyl-propyl] (2S)-2-[(3-hydroxy-4-methoxy-pyridine-2-carbonyl)amino]propanoate]
≥ 80%: pest or weed control at 200 ppm [1] | pest or weed control at 200 ppm [2] | inhibition at 200 ppm [3] | inhibition at 200 ppm [4] | pest or weed control at 200 ppm [5] | inhibition at 200 ppm [6] | inhibition at 200 ppm [7]

COc1ccnc(C(=O)N[C@@H](C)C(=O)OC(C)C(C)n2ccc3c(Cl)ccc(Cl)c32)c1O (stereo partly drawn) [I.bb.001, [2-(4,7-dichloroindol-1-yl)-1-methyl-propyl] (2S)-2-[(3-hydroxy-4-methoxy-pyridine-2-carbonyl)amino] propanoate]
≥ 80%: pest or weed control at 200 ppm [1] | pest or weed control at 200 ppm [2] | inhibition at 200 ppm [3] | inhibition at 200 ppm [4] | pest or weed control at 200 ppm [5] | inhibition at 200 ppm [6] | inhibition at 200 ppm [7]

COc1ccnc(C(=O)N[C@@H](C)C(=O)OC(C)C(C)n2ccc3cc(Br)ccc32)c1O (stereo partly drawn) [I.bc.001, [2-(5-bromoindol-1-yl)-1-methyl-propyl] (2S)-2-[(3-hydroxy-4-methoxy-pyridine-2-carbonyl)amino]propanoate]
≥ 80%: pest or weed control at 200 ppm [1] | inhibition at 200 ppm [3] | inhibition at 200 ppm [4] | pest or weed control at 200 ppm [5] | inhibition at 200 ppm [6] | inhibition at 200 ppm [7]

COc1ccnc(C(=O)N[C@@H](C)C(=O)OC(C)C(C)n2ccc3c(F)ccc(Br)c32)c1O (stereo partly drawn) [I.bd.001, [2-(7-bromo-4-fluoro-indol-1-yl)-1-methyl-propyl] (2S)-2-[(3-hydroxy-4-methoxy-pyridine-2-carbonyl)amino]propanoate]
≥ 80%: pest or weed control at 200 ppm [1] | pest or weed control at 200 ppm [2] | inhibition at 200 ppm [3] | inhibition at 200 ppm [4] | pest or weed control at 200 ppm [5] | inhibition at 200 ppm [6] | inhibition at 200 ppm [7]

COc1ccnc(C(=O)N[C@@H](C)C(=O)OC(C)C(C)n2ccc3c(F)ccc(Br)c32)c1OC(C)=O (stereo partly drawn) [I.bd.041, [2-(7-bromo-4-fluoro-indol-1-yl)-1-methyl-propyl] (2S)-2-[(3-acetoxy-4-methoxy-pyridine-2-carbonyl)amino]propanoate]
≥ 80%: pest or weed control at 200 ppm [1] | pest or weed control at 200 ppm [2] | inhibition at 200 ppm [3] | inhibition at 200 ppm [4] | pest or weed control at 200 ppm [5] | inhibition at 200 ppm [6] | inhibition at 200 ppm [7]

COc1ccnc(C(=O)N[C@@H](C)C(=O)OC(C)C(C)c2nc3ccccc3s2)c1O (stereo partly drawn) [I.e.001, [2-(1,3-benzothiazol-2-yl)-1-methyl-propyl] (2S)-2-[(3-hydroxy-4-methoxy-pyridine-2-carbonyl)amino] propanoate]
≥ 80%: inhibition at 200 ppm [8] | pest or weed control at 200 ppm [1] | inhibition at 200 ppm [3] | inhibition at 200 ppm [4] | pest or weed control at 200 ppm [5] | inhibition at 200 ppm [6] | inhibition at 200 ppm [7]

COc1ccnc(C(=O)N[C@@H](C)C(=O)OC(C)C(C)n2ccc3cc(Cl)ccc32)c1O (stereo partly drawn) [I.y.001, [2-(5-chloroindol-1-yl)-1-methyl-propyl] (2S)-2-[(3-hydroxy-4-methoxy-pyridine-2-carbonyl)amino]propanoate]
≥ 80%: inhibition at 200 ppm [8] | pest or weed control at 200 ppm [1] | inhibition at 200 ppm [9] | inhibition at 200 ppm [3] | inhibition at 200 ppm [4] | inhibition at 200 ppm [6] | inhibition at 200 ppm [7]

Source: patent US11629138B2, “Microbiocidal picolinamide derivatives” (Syngenta Participations AG, priority 2017, dated 2023)
